Results as given in patent US12441768B2, “Compositions and methods for treating endometriosis” (EndoMet Biosciences, Inc., priority 2018, dated 2025).
Where a SMILES comes first, the peptide text is derived from it. The star is where a group is joined. Bn = c1ccc(C*)cc1

What was measured:
[1] = molecular target: Wnt-responsive promoter (TCF/LEF); test: Wnt-dependent luciferase reporter assay; assay type: cell-based, murine
Method in brief: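 EC50 (uM) derived from inhibition of luminescence in Wnt3a-stimulated murine 3T3 cells expressing luciferase under a TCF/LEF promoter, with peptides added across a concentration range and vehicle as control.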

β-catenin = molecular target: T1, β-catenin (Homo sapiens, UniProt P35222); test: KD50 measurement using competitive fluorescence polarization (FP) with labelled TCF4; assay type: binding; settings: fluorescence polarization, β-catenin; for Kd: read-out: β-Cat FP KD
T1 sequence (P35222 1-781): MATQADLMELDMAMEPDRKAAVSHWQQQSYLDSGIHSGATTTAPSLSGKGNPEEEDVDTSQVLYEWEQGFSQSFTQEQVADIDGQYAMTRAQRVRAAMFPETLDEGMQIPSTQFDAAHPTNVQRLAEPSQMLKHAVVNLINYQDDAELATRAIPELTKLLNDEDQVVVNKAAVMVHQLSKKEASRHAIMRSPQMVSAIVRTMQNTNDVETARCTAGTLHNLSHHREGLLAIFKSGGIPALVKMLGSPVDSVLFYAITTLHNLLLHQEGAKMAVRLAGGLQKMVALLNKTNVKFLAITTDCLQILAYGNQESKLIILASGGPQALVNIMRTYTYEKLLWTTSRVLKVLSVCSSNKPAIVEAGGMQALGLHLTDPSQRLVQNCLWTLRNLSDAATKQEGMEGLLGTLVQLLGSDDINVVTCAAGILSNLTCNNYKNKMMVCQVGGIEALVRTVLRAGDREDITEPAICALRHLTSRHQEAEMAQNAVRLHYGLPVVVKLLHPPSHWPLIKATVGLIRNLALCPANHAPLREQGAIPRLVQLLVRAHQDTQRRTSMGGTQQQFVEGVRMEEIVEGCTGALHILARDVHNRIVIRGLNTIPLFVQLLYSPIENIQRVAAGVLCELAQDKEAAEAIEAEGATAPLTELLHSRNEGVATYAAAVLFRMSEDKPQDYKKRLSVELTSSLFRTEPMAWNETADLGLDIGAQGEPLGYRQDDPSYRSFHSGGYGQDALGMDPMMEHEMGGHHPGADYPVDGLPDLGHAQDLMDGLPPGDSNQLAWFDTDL
Method in brief: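 Each compound competes against labelled TCF4 (5 nM) for 100 nM β-catenin at room temperature, tested over 10 nM to 30 uM. Signal: polarization at 470/520 nm excitation/emission. Three repeat experiments were performed.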

[2] = % Viability non-Wnt responsive cells

Compound | EC50 [1] | β-Cat FP Hill slope (β-catenin) | Kd (β-catenin) | viability [2]
CC[C@H](C)[C@H](NC(=O)[C@H](CC(C)C)NC(=O)[C@H](Cc1ccccc1)NC(=O)[C@@H](N)Cc1c[nH]c2ccccc12)C(=O)N[C@@H](CO)C(=O)N[C@@H](COCc1ccccc1)C(=O)N[C@@H](Cc1c[nH]c2ccccc12)C(=O)O [compound 101] (H-WFLISS(Bn)W-OH) | 7.5 to 15 µM | 3 | 1 to 10 µM | 106%
CC[C@H](C)[C@H](NC(=O)[C@H](CC(C)C)NC(=O)[C@H](Cc1ccccc1)NC(=O)[C@H](Cc1c[nH]c2ccccc12)NC(=O)[C@@H](NC(=O)[C@H](CCCNC(=N)N)NC(=O)[C@H](CO)NC(=O)[C@@H](N)CCSC)[C@@H](C)CC)C(=O)N[C@@H](CO)C(=O)N[C@@H](Cc1ccccc1)C(=O)N[C@@H](Cc1c[nH]c2ccccc12)C(=O)NCC(=O)O [compound 55] (H-MSRIWFLISFWG-OH) | < 7.5 µM |  | > 30 µM | 101%
CC[C@H](C)[C@H](NC(=O)[C@H](CC(C)C)NC(=O)[C@@H](NC(=O)[C@H](Cc1c[nH]c2ccccc12)NC(=O)[C@H](CCSC)NC(=O)C(C)(C)C)[C@@H](C)CC)C(=O)N[C@@H](CO)C(=O)N[C@@H](Cc1ccccc1)C(=O)N[C@@H](Cc1c[nH]c2ccccc12)C(=O)NCC(=O)O [compound 225] (HELM PEPTIDE1{[CC(C)(C)C(=O)[*:2]].M.W.I.L.I.S.F.W.G}$$$$V2.0) | < 7.5 µM | 0.7 | 0.4 to 1 µM | 101%
CC[C@H](C)[C@H](NC(=O)[C@H](CC(C)C)NC(=O)[C@@H](NC(=O)[C@H](Cc1c[nH]c2ccccc12)NC(=O)[C@@H](N)CCSC)[C@@H](C)CC)C(=O)N[C@@H](CCO)C(=O)N[C@@H](Cc1ccccc1)C(=O)N[C@@H](Cc1c[nH]c2ccccc12)C(=O)NCC(=O)O [compound 144] (HELM PEPTIDE1{M.W.I.L.I.[O=C([C@H](CCO)N[*:1])[*:2]].F.W.G}$$$$V2.0) | < 7.5 µM |  | > 30 µM | 106%
CC[C@H](C)[C@@H]1NC(=O)[C@H](CC(C)C)NC(=O)[C@H](Cc2ccccc2)NC(=O)[C@H](Cc2c[nH]c3ccccc23)NC(=O)[C@@H](N)CC(=O)NCCCC[C@@H](C(=O)NCC(=O)O)NC(=O)[C@H](Cc2c[nH]c3ccccc23)NC(=O)[C@H](Cc2ccccc2)NC(=O)[C@H](CS)NC1=O [compound 176] (HELM PEPTIDE1{D.W.F.L.I.C.F.W.K.G}$PEPTIDE1,PEPTIDE1,1:R3-9:R3$$$V2.0) | 7.5 to 15 µM | 0.85 | 10 to 30 µM | 109%
CC[C@H](C)[C@H](NC(=O)[C@H](CC(C)C)NC(=O)[C@H](Cc1ccccc1)NC(=O)[C@H](Cc1c[nH]c2ccccc12)NC(=O)[C@H](Cc1c[nH]c2ccccc12)NC(=O)[C@H](CCCNC(=N)N)NC(=O)[C@H](CO)NC(=O)[C@@H](N)Cc1c[nH]c2ccccc12)C(=O)N[C@@H](CO)C(=O)N[C@@H](Cc1ccccc1)C(=O)N[C@@H](Cc1c[nH]c2ccccc12)C(N)=O [compound 92] (H-WSRWWFLISFW-NH2) | 15 to 22.5 µM |  | > 30 µM | 87.8%
CC[C@H](C)[C@@H]1NC(=O)[C@H](CC(C)C)NC(=O)[C@H](Cc2ccccc2)NC(=O)[C@H](Cc2c[nH]c3ccccc23)NC(=O)[C@H](CCSC)NC(=O)[C@@H](N)CCCCNC(=O)CC[C@@H](C(=O)N[C@@H](Cc2c[nH]c3ccccc23)C(=O)NCC(=O)O)NC(=O)[C@H](CS)NC1=O [compound 180] (HELM PEPTIDE1{K.M.W.F.L.I.C.E.W.G}$PEPTIDE1,PEPTIDE1,1:R3-8:R3$$$V2.0) | < 7.5 µM |  | > 30 µM | 103%
CC[C@H](C)[C@H](NC(=O)[C@H](CC(C)C)NC(=O)[C@H](Cc1ccccc1)NC(=O)[C@H](Cc1c[nH]c2ccccc12)NC(=O)[C@H](CCSC)NC(=O)[C@H](CCCNC(=N)N)NC(=O)[C@H](CO)NC(=O)[C@@H](N)CCC(=O)O)C(=O)N[C@@H](CO)C(=O)N[C@@H](Cc1ccccc1)C(=O)N[C@@H](Cc1c[nH]c2ccccc12)C(N)=O [compound 86] (H-ESRMWFLISFW-NH2) | > 30 µM |  | > 30 µM | 103%
